“And” between values parts separate entries of the source, which are not always exact repeats. Identical values can stand only once.
Test system: P. berghei ANKA
Assay: P. berghei 4-day mouse model
Type: in vivo
Conditions: 20 mg/kg p.o. q.d. at 2, 24, 48, 72 h
Experimental: In this model, mice are infected with P. berghei ANKA asexual blood stage parasites. Compounds are then administered by oral gavage at 20 mg/kg 2, 24, 48, and 72 hours after the parasite infection.
Each day, a fresh aliquot of the compound stock was diluted 1/10 in water for administration to mice. 8 week old female mice (Ozgene) on day 0 were infected with 2×10^7 P. berghei ANKA‐infected erythrocytes. […] 2 mice were also dosed with artesunate using the same regime at 30 mg/kg. The parasitemia of mice was assessed by visualizing Giemsa‐stained thin blood smears by microscopy and a minimum of 1000 RBCs were counted. To calculate the percent antimalarial activity the following formula was used: 100 ‐ (mean parasitemia treated day 4 post‐infection/mean parasitemia vehicle control day 4 post‐infection)×100. Mice were culled the day following the last oral gavage.
Briefly, ‘donor’ female Swiss mice were infected intraperitoneally (IP) with blood stage P. berghei parasites constitutively expressing GFP (P. berghei ANKA GFPcon 259cl2).[36] Three days later, groups of 3 ‘acceptor’ Swiss mice were infected intravenously with 1 x 10^7 parasitised red blood cells from the ‘donor mice’. […] Control mice were left untreated. Peripheral blood samples were taken 24 h after administration of the last dose, and parasitemia was measured by flow cytometry (proportion of GFP‐positive cells in 100,000 recorded events using Attune Nxt, ThermoFisher) and microscopic analysis of Giemsa‐stained blood smears. Parasitemia values were averages of 3 mice per group.

CN1C(=O)c2ccc(-n3cccn3)cc2NC1(C)C(=O)Nc1cncc(Cl)c1 (centres unmarked) [Compound 33, N‐(5‐Chloropyridin‐3‐yl)‐2,3‐dimethyl‐4‐oxo‐7‐(1H‐pyrazol‐1‐yl)‐1,2,3,4‐tetrahydroquinazoline‐2‐carboxamide]
% parasitemia (day 4): 12.8% | % reduction in parasitemia (day 4, versus control): 46% and 46.7%
